The source of these data is US20250243218A1, “NOVEL CARBAMATE COMPOUND AND USE THEREOF” (CHENGDU SHIBEIKANG BIOMEDICAL TECHNOLOGY CO., LTD., priority 2022, published 2025).

Where a name gives a salt, the structure may show the parent alone. Bounds are passed on as bounds.

Series [1] deals with ADP-induced platelet aggregation in rats. Briefly: Antiplatelet aggregation effect: ADP-induced platelet aggregation in PRP of rats after iv administration. In kind it is in vivo. To be noted: single iv at the same molar dose, blood 3 h after administration, ADP final 20 μM. The text has this: 1. Test objective: Evaluation and comparison of the antiplatelet aggregation treatment effect of each compound after administration at the same molar amount
70 rats were randomly and evenly grouped into 7 groups, i.e., solvent control group, comparative example 1 (2-Oxo-clopidogrel) group, comparative example 2 (Vicagrel) group, compound 1 group, compound 2 group, compound 7 group and compound 8 group.
Rats were anesthetized by intraperitoneal injection of 1.5% sodium pentobarbital.
The anesthetized animals were transferred to an operating platform.
The rats were injected with anesthetic, and fixed on the operating platform in a supine position after the whole body of the rat became soft. After routine disinfection, the abdomen of the rat was incised along the abdominal midline using surgical scissors to open the abdominal cavity. The adipose tissue around the blood vessels was gently separated with a small forceps, and the excess adipose tissue covering the blood vessels was then wiped and removed with the cotton ball to make the blood vessels clearly visible (the abdominal aorta is located anterior to the vertebral column, and the abdominal vein appears thicker and darker in color than the abdominal aorta). The blood vessel was first fixed to prevent it from moving as much as possible. The left thumb and index finger fixed the adipose tissue and other organs on both sides of the blood vessel, while the ring finger pressed on the blood vessel at the upper end of the needle insertion point to lower the blood pressure, which can prevent blood spurting. The puncture needle was held with the right hand, with the bevel of the needle tip facing downward. The needle was inserted at an angle of about 30 degrees and advanced towards the heart to a suitable depth of about 5 mm. Once the blood had started to enter the needle via its tip, the other end of the blood collection needle was inserted into the vacuum tube. After the insertion of needle, the needle tip could be clamped with a hemostatic clip to prevent it from puncturing the blood vessel if the rat struggled due to insufficient anesthesia.
Three hours after the administration, the rats were anesthetized with sodium pentobarbital. Then blood was collected from the abdominal aorta, added with 3.8% sodium citrate (1:9) as an anticoagulant, mixed evenly and centrifuged at 200 g for 10 min. The supernatant was harvested to obtain the platelet-rich plasma (PRP), and the residual plasma was then centrifuged at 1600 g for 15 min to obtain the resulting supernatant as platelet-poor plasma (PPP).
Platelet aggregation rate was measured using a platelet aggregometer (model: Agg RAM, Helena, USA). The PPPs corresponding to the PRPs to be tested in each channel were first used to correct the light transmission, and the PPPs were removed after the correction. A cuvette added with 225 μl of PRP to be tested was then placed in each channel, and added with a stirrer, then ADP (with a final concentration of 20 μM). The platelet aggregometer immediately began to measure the platelet aggregation rate.

Series [2] addresses T1, hERG potassium channel (Homo sapiens, UniProt Q12809).
T1 construct: expressed in transfected cells
Briefly: cell-based. The conditions noted are these: IC50 (μM), inhibition of cardiac hERG potassium channel, manual patch-clamp, stably overexpressed hERG channel. The text has this: Test Example 2: Effect of Compounds on Current in Stably Overexpressed hERG Channel
On the technique in general: hERG is a cardiac potassium channel; its block is linked to QT prolongation.

Series [3] in a line: Solubility study. The conditions noted are these: 25° C. to 30° C. In kind it is physicochemical. How it is done:
Samples of the example compound 2 and comparative example 2 (Vicagrel) were accurately weighed. Under the condition of 25° C. to 30° C., 1 ml of physiological saline and 1 ml of a buffer (pH 1.2) were taken, and added with 10 mg of each compound, respectively. The compound 2 of the present disclosure had excellent solubility, which can satisfy the demand for the formulation into an injection with an effective concentration in clinical, while the solubility of the comparative example 2 was extremely low and it cannot satisfy the demand for injection, and the addition of additional solubilizer may pose potential safety risks.

Series [4] is described as follows: Influencing factor test (high temperature, high humidity, light). The class given is physicochemical. To be noted: high temperature (60° C.), two days. How it is done: Test Methods: The samples of the compound 2 and comparative example 2 (Vicagrel) were weighed and placed in weighing bottles, respectively, and the weighing bottles were placed under the conditions of high temperature (60° C.), high humidity (RH 80%), and light (5000 Lux), respectively.

Series [5] is described as follows: Pharmacokinetic study in SD rats, 2-Oxo-clopidogrel in plasma by LC/MS/MS. In kind it is in vivo. To be noted: SD, rat, in vivo. An excerpt:
After being administered via single gavage at the same molar amount, the pharmacokinetic characteristics of each compound were investigated, and the main pharmacokinetic parameters were compared.
Each test compound was accurately weighed separately into a clean drug container, dissolved with appropriate amount of Solutol, shaken by vortex, added with purified water, ultrasonicated, and shaken by vortex until the compound was completely dissolved. All the formulations were freshly prepared on the day of administration.
Thirty healthy adult SD rats were administered via gavage.
Grouping and Fasting: SD rats were randomly grouped, with 6 rats per group, and administered with the corresponding compounds via gavage according to Table 3.
Sample Collection and Processing: 0.2 ml of blood was collected at different time points of before (0 h) and 5 min, 15 min, 30 min, 1 h, 2 h, 4 h, 8 h, and 24 h after the administration. After the anticoagulation with EDTA-K2 was completed, the blood was centrifuged at 4° C. for 5 min, and then the plasma was separated and stored at −80° C. for later measurement.
Measurement: The blood drug concentration of 2-Oxo-clopidogrel in all PK plasma samples was measured by LC/MS/MS method, and the pharmacokinetic parameters of individual compounds were calculated by using software WinNonlin 7.2.

T1 sequence (Q12809 whole entry): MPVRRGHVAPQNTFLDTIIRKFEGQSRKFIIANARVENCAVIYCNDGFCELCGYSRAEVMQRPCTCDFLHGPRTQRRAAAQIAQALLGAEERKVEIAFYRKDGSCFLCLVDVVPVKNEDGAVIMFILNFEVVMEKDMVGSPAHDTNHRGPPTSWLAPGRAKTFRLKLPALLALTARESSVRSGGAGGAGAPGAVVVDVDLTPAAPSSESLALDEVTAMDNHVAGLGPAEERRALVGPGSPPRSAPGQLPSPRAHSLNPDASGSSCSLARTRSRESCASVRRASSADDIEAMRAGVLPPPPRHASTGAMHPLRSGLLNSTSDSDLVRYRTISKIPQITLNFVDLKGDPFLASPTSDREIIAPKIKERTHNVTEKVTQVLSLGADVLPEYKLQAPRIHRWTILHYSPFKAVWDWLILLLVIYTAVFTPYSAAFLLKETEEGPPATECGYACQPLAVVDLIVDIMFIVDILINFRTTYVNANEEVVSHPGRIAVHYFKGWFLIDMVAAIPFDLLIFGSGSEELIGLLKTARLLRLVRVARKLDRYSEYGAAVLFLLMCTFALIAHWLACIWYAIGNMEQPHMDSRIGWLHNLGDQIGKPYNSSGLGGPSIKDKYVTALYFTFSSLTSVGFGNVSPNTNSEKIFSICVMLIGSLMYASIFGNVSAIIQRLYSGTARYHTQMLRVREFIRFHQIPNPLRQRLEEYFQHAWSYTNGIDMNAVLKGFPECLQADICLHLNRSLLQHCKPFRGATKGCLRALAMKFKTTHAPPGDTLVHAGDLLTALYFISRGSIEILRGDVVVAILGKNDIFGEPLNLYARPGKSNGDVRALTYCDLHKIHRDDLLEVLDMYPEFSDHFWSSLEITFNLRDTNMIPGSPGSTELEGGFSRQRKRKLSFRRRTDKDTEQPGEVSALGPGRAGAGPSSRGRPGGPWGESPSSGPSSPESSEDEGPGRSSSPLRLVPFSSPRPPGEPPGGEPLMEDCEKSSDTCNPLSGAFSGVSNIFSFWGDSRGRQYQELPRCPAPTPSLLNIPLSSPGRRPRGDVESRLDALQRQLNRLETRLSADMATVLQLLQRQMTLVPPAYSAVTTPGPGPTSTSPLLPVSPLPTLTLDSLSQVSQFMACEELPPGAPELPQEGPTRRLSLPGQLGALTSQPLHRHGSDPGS

For `COC(=O)[C@H](c1ccccc1Cl)N1CCc2sc(OC(=O)N3CCC(N4CCCCC4)CC3)cc2C1` [Compound 8, (S)-5-(1-(2-chlorophenyl)-2-methoxy-2-oxyethyl)-4,5,6,7-t etrahydrothieno[3,2-c]pyridin-2-yl [1,4′-bipiperidine]-1′-carboxylate hydrochloride], the “Platelet aggregation rate (%)” value in series [1] (solvent control 76.06 ± 3.29, hydrochloride) was determined as 27.13 ± 6.50 %. Besides, in series [2], the IC50 turned out to be 27.3 µM.

In series [2], `COC(=O)[C@H](c1ccccc1Cl)N1CCc2sc(OC(=O)N3CCN(C4CC4)CC3)cc2C1` [Compound 4, (S)-5-(1-(2-chlorophenyl)-2-methoxy-2-oxyethyl)-4,5,6,7-tetrahydrothieno[3,2-c]pyridin-2-yl 4-cyclopropylpiperazine-1-carboxylate] had an IC50 of 16.4 µM.

Take `COC(=O)[C@H](c1ccccc1Cl)N1CCc2sc(OC(=O)N3CCC(C4CCN(C)C4)CC3)cc2C1` (stereo partly drawn) [Compound 9, 5-((S)-1-(2-chlorophenyl)-2-methoxy-2-oxyethyl)-4,5,6,7-tetrahydrothieno[3,2-c]pyridin-2-yl-4-(1-methylpyrrolidine-3-yl) piperidine-1-carboxylate]: the IC50 in series [2] worked out at 27.2 µM.

With `COC(=O)[C@H](c1ccccc1Cl)N1CCc2sc(OC(C)=O)cc2C1` [Comparative Example 2, Vicagrel, reference compound], the “Platelet aggregation rate (%)” value in series [1] (solvent control 76.06 ± 3.29) is recorded as 39.32 ± 12.38 ^ %; in series [1] (solvent control 76.06 ± 3.29, listed as comparative example 2), 39.32±12.38%. This molecule also returned a Solubility, pH 1.2 buffer in series [3] (10 mg compound added to 1 ml buffer (pH 1.2)) below 0.5 mg/mL. Moreover, the “Solubility, Physiological saline(1 ml)” value in series [3] (10 mg compound added to 1 ml physiological saline) is listed as “insoluble”. In addition, the “change in appearance and characteristics” value in series [4] is listed as “from a white solid to a yellowish-brown oil”.

In turn, `COC(=O)[C@H](c1ccccc1Cl)N1CCc2sc(OC(=O)N3CCN(C4CCCC4)CC3)cc2C1` [Compound 5, (S)-5-(1-(2-chlorophenyl)-2-methoxy-2-oxyethyl)-4,5,6,7-tetrahydrothieno[3,2-c]pyridin-2-yl 4-cyclopentylpiperazine-1-carboxylate] came in with an IC50 in series [2] of 15.8 µM.

In series [2], `COC(=O)[C@H](c1ccccc1Cl)N1CCc2sc(OC(=O)N3CCN(C4CCCCC4)CC3)cc2C1` [Compound 6, (S)-5-(1-(2-chlorophenyl)-2-methoxy-2-oxyethyl)-4,5,6,7-tetrahydrothieno[3,2-c]pyridin-2-yl 4-cyclohexylpiperazine-1-carboxylate] gave an IC50 of 14.9 µM.

As to `COC(=O)[C@H](c1ccccc1Cl)N1CCC2SC(=O)C=C2C1` (stereo partly shown) [Comparative Example 1, 2-Oxo-clopidogrel, reference compound], the “Platelet aggregation rate (%)” value in series [1] (solvent control 76.06 ± 3.29) is given as 31.32 ± 6.07 ^ %. Moreover, in series [1] (solvent control 76.06 ± 3.29, listed as comparative example 1), the “Platelet aggregation rate (%)” value is recorded as 31.32±6.07%. For the same molecule, in series [5], the “AUC0-last” value stood at 60.15 ± 14.22 ng·h/mL, the “Cmax” value was found to be 38.48 ± 13.51 ng/mL, the “T1/2” value is recorded as 1.18 ± 0.21 h and the “Tmax” value was found to be 37.8 ± 9 min.

Consider `COC(=O)[C@H](c1ccccc1Cl)N1CCc2sc(OC(=O)N3CCN(C)CC3)cc2C1` [Compound 1, (S)-5-(1-(2-chlorophenyl)-2-methoxy-2-oxyethyl)-4,5,6,7-tetrahydrothieno[3,2-c]pyridin-2-yl 4-methylpiperazine-1-carboxylate], for which the “Platelet aggregation rate (%)” value in series [1] (solvent control 76.06 ± 3.29) worked out at 24.08 ± 6.00 %; in series [1] (solvent control 76.06 ± 3.29, listed as compound 1), 24.08±6.00%. Besides, half-maximal inhibition in series [2] (IC50) required 20.5 µM.

In series [2], `CCCN1CCN(C(=O)Oc2cc3c(s2)CCN([C@H](C(=O)OC)c2ccccc2Cl)C3)CC1` [Compound 3, (S)-5-(1-(2-chlorophenyl)-2-methoxy-2-oxyethyl)-4,5,6,7-t etrahydrothieno[3,2-c]pyridin-2-yl-4-propylpiperazine-1-carboxylate] displayed an IC50 of 15.2 µM.

As to `COC(=O)[C@H](c1ccccc1Cl)N1CCc2sc(OC(=O)N3CCC(N4CCCCC4)CC3)cc2C1` [Compound 7, (S)-5-(1-(2-chlorophenyl)-2-methoxy-2-oxyethyl)-4,5,6,7-tetrahydrothieno[3,2-c]pyridin-2-yl [1,4′-bipiperidine]-1′-carboxylate], the “Platelet aggregation rate (%)” value is listed as 27.59 ± 6.99 % in series [1] (solvent control 76.06 ± 3.29) and 27.59±6.99% in series [1] (solvent control 76.06 ± 3.29, listed as compound 7). In series [2], this molecule had an IC50 of 25.4 µM.

For `COC(=O)[C@H](c1ccccc1Cl)N1CCc2sc(OC(=O)N3CCC(N4CCN(C)CC4)CC3)cc2C1` [Compound 10, (S)-5-(1-(2-chlorophenyl)-2-methoxy-2-oxyethyl)-4,5,6,7-tetrahydrothieno[3,2-c]pyridin-2-yl-4-(4-methylpiperazine-1-yl) piperidine-1-carboxylate], half-maximal inhibition in series [2] (IC50) required 25.9 µM.

As usually defined, the IC50 is the concentration that inhibits the measured activity by half. A word on the Cmax: it is the highest concentration seen after dosing. Usually Tmax stands for the time from dosing to the highest level.
